Entries after “also recorded” stand apart in the source; their conditions may differ.
Experiments:
[1] = tested on: Human cutaneous T-cell lymphoma Hut102 cells; test: MTT assay, proliferation of human cutaneous T-cell lymphoma Hut102 cells; format: cell-based; conditions: HuT-102, 10 μM, Mean ± SE, read-out: Inhibitive rate (%) against Hut102 cells
Description: The survival rate of cells was determined by MTT assay, which is based on the metabolic reduction of 3-(4,5-dimethyl-2thiahiazoyl)-3,5-di-phenyl-tetrazolium bromide (MTT) by viable cells. MTT is a yellow compound, a dye that accepts hydrogen ion, which can act on the respiratory chain in the mitochondria of viable cells. Under the action of succinate dehydrogenase and cytochrome C, the tetrazolium ring was cleaved to form blue Formazan crystals, and the amount of Formazan crystals generated was only proportional to the number of the viable cells. The enzymes disappeared in dead cells, so Formazan crystals could not be dissolved in MTT solution containing 20% sodium dodecyl sulfate (pH 4.7).
The cells in the logarithmic growth phase were selected and adjusted to an appropriate cell density, seeded in a 96-well plate, 100 μl/well, and cultured in a 37° C., 5% CO2 incubator. The cells were allowed to adhere overnight, then the culture medium was replaced and the drug was added to cultivate for 48 h. A blank control group, a drug administration group and a positive control group were set, with four repeats in each group.
After 48 h of drug treatment, the cells were incubated with 0.25 mg/ml MTT at 37° C. for 3-4 h, and 100 μl of dimethyl sulfoxide (DMSO) was added to each well after aspirating the culture solution.

[2] = tested on: APP/PS1 double transgenic AD model mice; test: Behavioral experiments (new object discrimination, Y-maze, Morris water maze, nesting, social interaction); format: in vivo; conditions: 14 days or 3 months
Description: The drugs were administered three days after the adaptive feeding. Peanut oil was used as the solvent. The drug was intragastric administered once a day for 15 days. On the 6th to 9th day after the administration, the new object identification test was performed. On the 10th day, the Y-maze test was performed. On the 11th to 15th day, the Morris water maze test was performed to determine the improvement of learning and memory. The administration of the drugs was continued during the behavioral experiment until the animals were sacrificed (16th day). The experimental device is a wooden square open field with a size of 50 cm×50 cm×15 cm. […] The mouse was placed back to the objects at equal distance from the two identical objects on the other side of the experimental device, and the time (tA1, tA2) used to explore the two objects within 5 minutes was recorded. After 1 h, A2 was replaced with a new object (B) and the mouse was placed in the test site again, the time (tA1, tB) used to explore the two objects was recorded. After 24 h, the object B was replaced with a new object (C), and the mouse was placed in the test site again, the time (tA1, tC) used to explore the two objects was recorded. […] The preferential index and the discrimination index of the new objects for each group of the experimental mice were calculated separately. […]

With `CC1(C)CCC(C)(C)c2c1cc1c(c2NC(=O)c2ccc(NC(=O)NCCN)cc2)C(C)(C)CCC1(C)C` [OAB-14, 1-(2-amino) ethyl-3-{4-[(1,1,4,4,5,5,8,8-octamethyl-1,2,3,4,5,6,7,8-octahydro-9-anthryl)carbamoyl]phenyl} urea] the inhibition at 10 µM [1] was 41.2 ± 1.08%, the “Learning and memory disorders in new object discrimination, Y-maze, Morris water maze, nesting and social interaction tests” value ([2]; 50, 100 and 200 mg/kg intragastric, 8-month-old APP/PS1 mice) was “dose-dependently improve” and the “Behavioral effect of the high-dose group compared with donepezil and blank groups” value ([2]; high-dose group) was “significantly stronger than that of the donepezil group and completely restored to the level of the blank control group; also recorded: significantly stronger than the donepezil group and completely recovered to the level of the blank group”.

— patent US10399931B2, “Octahydroanthracene compound, preparation method and application thereof” (SHANDONG XINHUA PHARMACEUTICAL CO., LTD., priority 2016, dated 2019)
